Drawing on ChEMBL document CHEMBL3045577, “Synthesis and anti-HIV activity evaluation of novel N-arylidene-2-[1-(naphthalen-1-yl)-1H-tetrazol-5-ylthio]acetohydrazides” (Med Chem Res, 2010), this text covers EC50, selectivity ratio and CC50 for 24 compounds.

Data set [1] has as its system Human immunodeficiency virus 2. The data set is described as follows: Antiviral activity against Human immunodeficiency virus type 2 (ISOLATE ROD) infected human MT4 cells assessed as inhibition of virus-induced cytopathicity after 4 days by MTT assay. The format is functional, organism-based. As to conditions: Human immunodeficiency virus 2, ISOLATE ROD, MT4, 96 h. (In general: Damage to the host cells serves as the signal in cytopathic effect assays.)

The subject of data set [2] is Human immunodeficiency virus 1. The data set is described as follows: Antiviral activity against Human immunodeficiency virus 1 IIIB infected human MT4 cells assessed as inhibition of virus-induced cytopathicity after 4 days by MTT assay. The data set is classed as functional, organism-based. The following applies: MT4, 96 h.
A short description of data set [3]: Selectivity index, ratio of CC50 for human MT4 cells to EC50 for HIV-2 ROD infected in MT4 cells. The format is toxicity, cell-based. The following applies: read-out: Ratio CC50/EC50.
Data set [4] in a line: Cytotoxicity against Homo sapiens (human) MT4 cells by MTT assay. The data set is classed as cell-based. For orientation: Tetrazolium assays rely on reduction of a dye to a coloured formazan, in cell work by metabolically active cells.
The nature of data set [5]: Selectivity index, ratio of CC50 for human MT4 cells to EC50 for HIV-1 3B infected in MT4 cells. As to conditions: read-out: Ratio CC50/EC50. The data set is classed as toxicity, cell-based.

Consider `O=C(CSc1nnnn1-c1cccc2ccccc12)N/N=C/c1ccc([N+](=O)[O-])cc1`, for which the EC50 in data set [1] and in data set [2] was above 261 µM in each case. The selectivity ratio in data set [3] and in data set [5] was 1 each time. Besides, in data set [4], the 50% cytotoxic concentration (CC50) is at least 261 µM.

In data set [4], `CC(C)Nc1cccnc1N1CCN(C(=O)c2cc3cc(NS(C)(=O)=O)ccc3[nH]2)CC1` [DELAVIRDINE] gave a 50% cytotoxic concentration (CC50) above 3.83 µM. In data set [5], the selectivity ratio is above 12.

Turning to `O=C(CSc1nnnn1-c1cccc2ccccc12)N/N=C/c1ccccc1O`, the half-maximal effective concentration (EC50) in data set [1] and in data set [2] was above 4.85 µM in each case. Also, the selectivity ratio in data set [3] and in data set [5] was below 1 in each case. The same compound registered a CC50 in data set [4] of 4.85 µM.

On to `O=C(CSc1nnnn1-c1cccc2ccccc12)N/N=C/c1ccccc1Cl`, for which the concentration giving a half-maximal response (EC50) in data set [1] and in data set [2] was above 69.7 µM throughout. Also, the selectivity ratio in data set [3] and in data set [5] was below 1 each time. Also, the half-maximal cytotoxic concentration (CC50) in data set [4] was 69.7 µM.

In the case of `CN(C)c1ccc(/C=N/NC(=O)CSc2nnnn2-c2cccc3ccccc23)cc1`, the EC50 in data set [1] and in data set [2] was above 290 µM throughout. In addition, the selectivity ratio in data set [3] and in data set [5] was 1 throughout. The CC50 in data set [4] is above 290 µM.

In the case of `O=C(CSc1nnnn1-c1cccc2ccccc12)N/N=C/c1ccc(O)cc1`, the half-maximal effective concentration (EC50) in data set [1] is above 309 µM; in data set [2] it was 31.6 µM. Also, the selectivity ratio in data set [3] was 1; in data set [5] it was above 9. Further, the CC50 in data set [4] is above 309 µM.

With `COc1cc(/C=N/NC(=O)CSc2nnnn2-c2cccc3ccccc23)ccc1O`, the EC50 in data set [1] and in data set [2] was above 288 µM in each case. Besides, the selectivity ratio in data set [3] and in data set [5] was 1 throughout. Moreover, the CC50 in data set [4] was above 288 µM.

For the compound `O=C(CSc1nnnn1-c1cccc2ccccc12)N/N=C/c1ccco1`, the half-maximal effective concentration (EC50) in data set [1] and in data set [2] was above 330 µM throughout. Also, the selectivity ratio in data set [3] and in data set [5] was 1 in each case. This compound also gave a CC50 in data set [4] above 330 µM.

On to `O=C(CSc1nnnn1-c1cccc2ccccc12)N/N=C/c1ccccc1F`, for which the 50% effective concentration (EC50) in data set [1] and in data set [2] was above 118 µM in each case. Moreover, the selectivity ratio in data set [3] and in data set [5] was 1 in each case. The same compound showed a CC50 in data set [4] of at least 118 µM.

For the compound `Cc1ccnc2c1NC(=O)c1cccnc1N2C1CC1` [NEVIRAPINE], the CC50 in data set [4] is above 15 µM.

Take `Cc1cccc(/C=N/NC(=O)CSc2nnnn2-c2cccc3ccccc23)c1`: the EC50 in data set [1] and in data set [2] was above 269 µM each time. Also, the selectivity ratio in data set [3] and in data set [5] was below 1 throughout. In data set [4], this compound had a cytotoxic concentration (CC50) of 269 µM.

With `O=C(CSc1nnnn1-c1cccc2ccccc12)N/N=C/c1ccc(Cl)cc1`, the EC50 in data set [1] and in data set [2] was above 296 µM each time. The selectivity ratio in data set [3] and in data set [5] was 1 each time. Also, the CC50 in data set [4] is above 296 µM.

As for `O=C1Nc2ccc(Cl)cc2[C@@](C#CC2CC2)(C(F)(F)F)O1` [EFAVIRENZ], the cytotoxic concentration (CC50) in data set [4] was above 6.34 µM. The selectivity ratio in data set [5] is above 1430.

Consider `COc1ccc(/C=N/NC(=O)CSc2nnnn2-c2cccc3ccccc23)c(OC)c1`, for which the 50% effective concentration (EC50) in data set [1] and in data set [2] was above 28.3 µM throughout. In addition, the selectivity ratio in data set [3] and in data set [5] was below 1 in each case. The compound also yielded a CC50 in data set [4] of 28.3 µM.

In the case of `O=C(CSc1nnnn1-c1cccc2ccccc12)N/N=C/c1cccs1`, the concentration for a half-maximal effect (EC50) in data set [1] and in data set [2] was above 317 µM each time. Besides, the selectivity ratio in data set [3] and in data set [5] was 1 each time. The compound also yielded a CC50 in data set [4] above 317 µM.

For the compound `O=C(CSc1nnnn1-c1cccc2ccccc12)N/N=C/c1cccc(Cl)c1`, the EC50 in data set [1] and in data set [2] was above 240 µM throughout. For the same compound, the selectivity ratio in data set [3] and in data set [5] was below 1 each time. For the same compound, the CC50 in data set [4] is 240 µM.

For the compound `COc1ccc(/C=N/NC(=O)CSc2nnnn2-c2cccc3ccccc23)cc1OC`, the EC50 in data set [1] is above 191 µM; in data set [2], at least 36.3 µM. Besides, the selectivity ratio was below 1 in data set [3] and at most 5 in data set [5]. In data set [4], this compound gave a 50% cytotoxic concentration (CC50) of 191 µM.

In data set [4], `Cc1cn([C@H]2C[C@H](N=[N+]=[N-])[C@@H](CO)O2)c(=O)[nH]c1=O` [ZIDOVUDINE] returned a cytotoxic concentration (CC50) above 93.5 µM. Besides, the selectivity ratio in data set [5] is above 6190.

For `O=C(CSc1nnnn1-c1cccc2ccccc12)N/N=C/c1ccc(F)cc1`, the EC50 in data set [1] and in data set [2] was above 308 µM throughout. Besides, the selectivity ratio in data set [3] and in data set [5] was 1 in each case. Moreover, in data set [4], the CC50 is above 308 µM.

As for `COc1cccc(/C=N/NC(=O)CSc2nnnn2-c2cccc3ccccc23)c1OC`, the concentration giving a half-maximal response (EC50) in data set [1] and in data set [2] was above 192 µM each time. In addition, the selectivity ratio in data set [3] and in data set [5] was below 1 each time. In data set [4], this compound displayed a CC50 of 192 µM.

Consider `COc1ccc(/C=N/NC(=O)CSc2nnnn2-c2cccc3ccccc23)cc1`, for which the EC50 in data set [1] and in data set [2] was above 299 µM throughout. Moreover, the selectivity ratio in data set [3] and in data set [5] was 1 throughout. Also, the CC50 in data set [4] was above 299 µM.

For the compound `O=C(CSc1nnnn1-c1cccc2ccccc12)N/N=C/c1ccccc1`, the EC50 in data set [1] was above 229 µM; in data set [2], at least 21.4 µM. The selectivity ratio in data set [3] is below 1; in data set [5], at most 10. Also, the half-maximal cytotoxic concentration (CC50) in data set [4] amounted to 216 µM.

As to `O=C(CSc1nnnn1-c1cccc2ccccc12)N/N=C/c1cccc(O)c1`, the concentration for a half-maximal effect (EC50) in data set [1] is above 169 µM; in data set [2], 29.6 µM. The selectivity ratio in data set [3] is below 1; in data set [5] it was 6. In data set [4], this compound came in with a CC50 of 169 µM.

Turning to `COc1ccc(O)c(/C=N/NC(=O)CSc2nnnn2-c2cccc3ccccc23)c1`, the 50% effective concentration (EC50) in data set [1] and in data set [2] was above 4.51 µM in each case. Moreover, the selectivity ratio in data set [3] and in data set [5] was below 1 throughout. The compound also showed a cytotoxic concentration (CC50) in data set [4] of 4.51 µM.

As a reminder, the EC50 is the concentration needed to bring the measured effect to its halfway point. By CC50 is commonly meant the concentration giving 50% cytotoxicity.
